Results as given in the supplement of paper PMC10307832.

How the values were obtained:
Test in all cases: relative viability (nuclei count vs DMSO), 5 days (fraction); higher = more cells survive
[1] = compound: CN(c1ncccc1CNc1nc(Nc2ccc3c(c2)CC(=O)N3)ncc1C(F)(F)F)S(C)(=O)=O + CCNC(=O)c1noc(-c2cc(C(C)C)c(O)cc2O)c1-c1ccc(CN2CCOCC2)cc1 [Luminespib] (partner 0.01 µM)
In short: (§1)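 Lung cancer cell lines in 1536-well plates got either a single drug or a fixed anchor-drug dose together with five library-drug doses (not always all listed) in √10 steps, by pin tool, on the day after seeding. Nuclei were counted after 5 days, and relative viability is the treated-to-vehicle ratio of nuclei counts. Values are medians of duplicate plates.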

[2] = compound: CN(c1ncccc1CNc1nc(Nc2ccc3c(c2)CC(=O)N3)ncc1C(F)(F)F)S(C)(=O)=O + CS(=O)(=O)N1CCN(Cc2cc3nc(-c4cccc5[nH]ncc45)nc(N4CCOCC4)c3s2)CC1 [Pictilisib] (partner 1 µM)
In short: as §1

[3] = compound: CN(c1ncccc1CNc1nc(Nc2ccc3c(c2)CC(=O)N3)ncc1C(F)(F)F)S(C)(=O)=O + CC(=O)c1c(C)c2cnc(Nc3ccc(N4CCNCC4)cn3)nc2n(C2CCCC2)c1=O [Palbociclib] (partner 0.5 µM)
In short: as §1

[4] = compound: CN(c1ncccc1CNc1nc(Nc2ccc3c(c2)CC(=O)N3)ncc1C(F)(F)F)S(C)(=O)=O + COc1cccc2cc(-c3nc([C@H]4CC[C@H](C(=O)O)CC4)n4ncnc(N)c34)[nH]c12 [OSI-027] (partner 0.5 µM)
In short: as §1

Cell Line	relative viability ([1]; first compound 0.01 µM)	relative viability ([1]; first compound 0.03162 µM)	relative viability ([1]; first compound 0.1 µM)	relative viability ([1]; first compound 0.3162 µM)	relative viability ([1]; first compound 1 µM)	relative viability ([2]; first compound 0.01 µM)	relative viability ([2]; first compound 0.03162 µM)	relative viability ([2]; first compound 0.1 µM)	relative viability ([2]; first compound 0.3162 µM)	relative viability ([2]; first compound 1 µM)	relative viability ([3]; first compound 0.01 µM)	relative viability ([3]; first compound 0.03162 µM)	relative viability ([3]; first compound 0.1 µM)	relative viability ([3]; first compound 0.3162 µM)	relative viability ([3]; first compound 1 µM)	relative viability ([4]; first compound 0.01 µM)	relative viability ([4]; first compound 0.03162 µM)	relative viability ([4]; first compound 0.1 µM)	relative viability ([4]; first compound 0.3162 µM)	relative viability ([4]; first compound 1 µM)
LK-2	0.175	0.174	0.165	0.201	0.235	0.585	0.625	0.586	0.794	0.462	0.784	0.723	0.666	0.662	0.717	0.198	0.157	0.244	0.205	0.18
NCI-H661	0.854	0.928	0.837	0.871	0.876	0.578	0.335	0.405	0.378	0.383	0.406	0.385	0.429	0.383	0.341	0.69	0.668	0.641	0.774	0.784
HCC-366	–	–	–	–	–	0.108	0.155	0.0871	0.197	0.19	0.41	0.391	0.342	0.336	0.316	0.786	1.01	0.846	0.996	0.973
HOP-62	0.969	0.933	0.949	0.932	0.699	0.784	0.899	0.793	0.853	0.643	0.469	0.444	0.374	0.412	0.39	0.956	0.804	0.743	0.825	0.731
NCI-H1944	0.779	0.926	0.818	0.732	0.828	0.356	0.352	0.335	0.342	0.396	0.346	0.342	0.328	0.322	0.312	0.401	0.445	0.38	0.453	0.439
SW 1573	0.726	0.195	0.289	0.311	0.189	0.584	0.52	0.422	0.573	0.454	0.482	0.399	0.346	0.31	0.35	0.549	0.669	0.569	0.738	0.559
LU99A	0.316	0.264	0.323	0.325	0.246	0.314	0.357	0.342	0.373	0.335	0.406	0.517	0.465	0.411	0.448	0.284	0.279	0.27	0.277	0.352
NCI-H647	0.127	0.163	0.122	0.103	0.119	0.529	0.365	0.38	–	0.594	0.349	0.402	0.319	0.367	0.322	0.656	0.76	0.683	0.62	0.592
A-427	0.908	1.1	0.832	0.921	0.905	0.69	0.753	0.638	0.73	0.667	0.529	0.491	0.516	0.546	0.491	0.472	0.553	0.504	0.44	0.475
COR-L 105	0.691	0.712	0.809	0.766	0.526	0.435	0.395	0.383	0.427	0.426	0.426	0.411	0.41	0.427	0.376	0.668	0.784	0.747	0.615	0.583
NCI-H441	0.435	0.322	0.369	0.331	0.287	0.554	0.516	0.527	0.527	0.508	0.23	0.239	0.181	0.176	0.16	0.76	0.725	0.596	0.77	0.518
EBC-1	–	–	–	–	–	0.365	0.325	0.391	0.36	0.305	–	–	–	–	–	–	–	–	–	–
SW 900	0.216	0.2	0.19	0.154	0.168	–	–	–	–	–	0.513	0.48	0.52	0.52	0.456	0.623	0.574	0.659	0.514	0.49
NCI-H522	1.17	1.2	1.17	1.14	1.15	–	–	–	–	–	1.06	1.01	1.08	1.15	0.752	0.717	0.703	0.726	0.742	0.798
NCI-H596	0.943	1.02	0.951	1.06	0.968	0.409	0.37	0.428	0.456	0.37	–	–	–	–	–	0.698	0.799	0.664	0.731	0.669
NCI-H1563	0.538	0.528	0.53	0.482	0.547	0.602	0.629	0.657	0.722	0.662	–	–	–	–	–	0.78	0.79	0.771	0.788	0.753
NCI-H1299	–	–	–	–	–	0.754	0.768	0.809	0.739	0.693	–	–	–	–	–	–	–	–	–	–
NCI-H2342	0.702	0.736	0.643	0.632	0.723	–	–	–	–	–	0.564	0.536	0.548	0.497	0.455	0.579	0.614	0.617	0.519	0.57
A549	–	–	–	–	–	0.474	0.63	0.569	0.452	0.409	–	–	–	–	–	–	–	–	–	–
IA-LM	–	–	–	–	–	0.348	0.292	0.309	0.32	0.276	–	–	–	–	–	–	–	–	–	–
Calu-6	–	–	–	–	–	0.926	0.986	0.929	0.874	0.845	–	–	–	–	–	–	–	–	–	–
